System: P. falciparum 3D7 parasites (schizonts)
Experiment: YnMyr treatment of schizonts: morphology and life cycle progression
Format: cell-based
Details: up to 50 μM, 5 h

SMILES: C#CCCCCCCCCCCCC(=O)O [YnMyr, tetradec-13-ynoic acid]
- changes in morphology or life cycle progression: no changes were observed in morphology or life cycle progression
